Assay results published in patent publication US20250074976A1, “PHARMACEUTICAL COMPOSITION FOR TREATING PERIPHERAL NERVE INJURY” (NATIONAL UNIVERSITY CORPORATION HOKKAIDO UNIVERSITY, priority 2021, published 2025).

Key:
Type in all cases: in vivo, Lewis rats
[1] = system: sciatic nerve crush injury; test: Collagen sheet covering 15 mm to 25 mm distal to injury site, evaluation 12 hours after crush injury (NETs, macrophages); settings: n=3; for NETs in the epineurium (CitH3 positive area) / macrophages accumulated in the nerve parenchyma: 20 mm distal
Source text: (§1) Anesthetized Lewis rats (males, 12-16 weeks old) or C57BL/6 mice (males, 8-10 weeks old) were placed in the prone position and a longitudinal skin incision was made from the left buttock to the distal left thigh to expose the entire sciatic nerve. Crush injuries were created with micro mosquito forceps (Fine Science Tools, No. 13010-12). An 8-0 Nylon thread was applied to the epineurium at the crush injury for marking, and the incision was closed.
(§2) After a predetermined time had elapsed from the creation of the crush injury, the right atrial appendage of the animals was incised under anesthesia to release the blood, and a PBS solution was poured into the left heart to remove the blood. After transcardial perfusion and fixation with 4% paraformaldehyde-added PBS, the sciatic nerve was collected.
(§3) Sciatic nerves collected from animals were fixed in 4% PFA at 4° C. overnight and then transferred to 30% Sucrose/PB solution and allowed to stand for 24 hours or longer. Longitudinal sciatic nerve sections of 10 μm thickness, or in the case of mice, transverse sections at predetermined locations, were prepared using a cryostat. The sections were blocked in TBS (pH 8.4) containing 5% Normal horse serum (Thermo Fisher Scientific, Waltham, MA) and 0.25% Triton X-100 (Sigma-Aldrich, St. Louis, MO) for 1 hour, and then immersed in TBS containing primary antibody at 4° C. overnight and in TBS containing secondary antibody at room temperature for 1 hour for staining. After washing with TBS, counterstaining was performed with DAPI. After staining, tissues were observed using a fluorescence microscope BZ-X710 (KEYENCE). Image analysis was performed using Image J (Schneider et al., 2012).
Crush injuries were created in the sciatic nerve of rats. Ten hours after injury creation, the sciatic nerves from 15 mm to 25 mm distal to the injury site were wrapped with the collagen-based artificial skin PELNAC (registered trademark) (Smith & Nephew; hereafter also referred to as sheets or collagen sheets) impregnated with either 50 μl of PBS containing 0.3 mg of the PAD4 inhibitor Cl-amidine (Cayman CHEMICAL #10599), 50 μl of PBS containing 200 U of DNase I (Nippon Gene #314-08071), or 50 μl of PBS (control). The sheets were suture-fixed with 8-0 nylon and placed for 2 hours (n=3 in each group). Twelve hours after injury creation, the sciatic nerves were collected, their longitudinal sections at 20 mm distal to the injury site were prepared and immunohistochemical staining for CitH3, Ly-6G, and CD68 was performed. The epineural area was observed and the percentage of area stained for CitH3 in the total area of the field of view was calculated. The number of macrophages per unit area of the nerve parenchyma was quantified.
Crush injuries were created in the sciatic nerve of rats. Ten hours after injury creation, the sciatic nerves from 15 mm to 25 mm distal to the injury site were wrapped with collagen sheets impregnated with either 50 μl of 1% DMSO containing 500 μg of the MIF inhibitor iso-1 (Abcam, Cat ab142140), or 50 μl of 1% DMSO. The sheets were suture-fixed with 8-0 nylon and placed for 2 hours (n=3 in each group). Twelve hours after injury creation, the sciatic nerves were collected, their longitudinal sections were prepared, and immunohistochemical staining for CitH3, Ly-6G, and CD68 was performed. The epineural area was observed and the percentage of area stained for CitH3 in the total area of the field of view was calculated. The number of macrophages per unit area of the nerve parenchyma was quantified.
Crush injuries were created in the sciatic nerve of rats. Ten hours after injury creation, the sciatic nerves from 15 mm to 25 mm distal to the injury site were wrapped with collagen sheets impregnated with either 50 μl of PBS containing 500 μg of the CXCR4 inhibitor AMD3100 (Abcam #10599), or 50 μl of PBS. The sheets were suture-fixed with 8-0 nylon and placed for 2 hours (n=3 in each group).

[2] = system: sciatic nerve crush injury; test: Collagen sheet covering 5 mm to 25 mm distal to injury site, evaluation 7 days after crush injury (macrophages, axonal regeneration); settings: placed 2 hours, 7 days after injury, vs control sheet
Source text: as §1, §2, §3
(§4) In β3 tubulin-immunostained images of longitudinal sciatic nerve sections, vertical lines were set at 5 mm intervals in the direction distal to the injury site, and the number of axons crossing each line was divided by the length of the line to calculate axon density. The axonal regeneration percentage was calculated by dividing the axon density at each location by the axon density at uninjured site 1.5 mm proximal to the injury site.
(§5) Crush injuries were created in the sciatic nerve of rats.
Crush injuries were created in the sciatic nerve of rats. […] The sheets were removed 12 hours after injury creation and the incisions were closed after washing.
as §5

[3] = system: sciatic nerve crush injury; test: Collagen sheet covering 5 mm to 15 mm distal to injury site, evaluation 7 days after crush injury (axonal regeneration); settings: sheet with 500 μg inhibitor in 50 μl 1% DMSO, placed 2 hours; 7 days after injury; vs control sheet; n=1; FIG. 37
Source text: as §1, with “Crush injuries were created with micro mosquito forceps (Fine Science Tools, No. 13010-12).” left out
as §2
as §3, with “(KEYENCE).” for “(KEYENCE). Image analysis was performed using Image J (Schneider et al., 2012).”
as §4
Crush injuries were created in the sciatic nerve of rats. […] […] Seven days after injury creation, the sciatic nerves were collected, and immunohistochemical staining of their longitudinal sections was performed to calculate the axonal regeneration percentage.

SMILES: O=C(O)CC1CC(c2ccc(O)cc2)=NO1 (racemic) [iso-1, (S,R)-3-(4-Hydroxyphenyl)-4,5-dihydro-5-isoxazole acetic acid]
- NETs in the epineurium at 20 mm distal to the injury site (CitH3 positive area) ([1]; sheet with 500 μg iso-1 in 50 μl 1% DMSO, placed 2 hours, 12 hours after injury, FIG. 32): only a small amount of NETs were detected
- macrophage accumulation at 5 mm distal to the injury site (no sheet treatment there) ([1]; sheet with 500 μg iso-1 in 50 μl 1% DMSO, placed 2 hours, 12 hours after injury, vs control sheet, FIG. 30): no difference in macrophage accumulation
- macrophages accumulated in the nerve parenchyma at 20 mm distal to the injury site (sheet-treated) ([1]; sheet with 500 μg iso-1 in 50 μl 1% DMSO, placed 2 hours, 12 hours after injury, vs control sheet, FIG. 31): more macrophages accumulated in the nerve parenchyma
- axonal regeneration percentage ([2]; sheet with 1000 μg iso-1 in 100 μl 1% DMSO, over almost the entire evaluated regions, n=3, FIG. 35): higher axonal regeneration percentage
- accumulation of macrophages in the nerve parenchyma (CD68; M2 macrophages CD163) ([2]; sheet with 1000 μg iso-1 in 100 μl 1% DMSO, over the entire evaluated regions, n=3, FIG. 33, 34): greater accumulation of macrophages in the nerve parenchyma
- axonal regeneration percentage [3]: higher axonal regeneration percentage
- longest axon length [3]: greater longest axon length

SMILES: c1cc(CN2CCCNCCNCCCNCC2)ccc1CN1CCCNCCNCCCNCC1 [AMD3100, 1,4-Bis[(1,4,8,11-tetraazacyclotetradecan-1-yl)methyl]benzene]
- NETs in the epineurium (CitH3 positive area) ([1]; sheet with 500 μg AMD3100 in 50 μl PBS, placed 2 hours, 12 hours after injury, FIG. 39): only a small amount of NETs were detected
- macrophages accumulated in the nerve parenchyma ([1]; sheet with 500 μg AMD3100 in 50 μl PBS, placed 2 hours, 12 hours after injury, vs control sheet, FIG. 40): more macrophages accumulated in the nerve parenchyma
- macrophages accumulated in the nerve parenchyma ([2]; sheet with 1 mg AMD3100 in 100 μl PBS, over almost the entire evaluated regions, n=1, FIG. 42): more macrophages accumulated in the nerve parenchyma
- axonal regeneration percentage ([2]; sheet with 1 mg AMD3100 in 100 μl PBS, n=1, FIG. 41): higher axonal regeneration percentage

SMILES: O=C(CC1CC(c2ccc(F)cc2F)=NO1)N1CCOCC1 (stereo not drawn) [CPSI-1306]
- axonal regeneration percentage [3]: higher axonal regeneration percentage
- longest axon length [3]: greater longest axon length

SMILES: N=C(CCl)NCCC[C@H](NC(=O)c1ccccc1)C(N)=O.O=C(O)C(F)(F)F [Cl-amidine, N^2-Benzoyl-N^5-(1-imino-2-chloroethyl)-L-ornithinamide trifluoroacetic acid]
- NETs in the epineurium (CitH3 positive area) ([1]; sheet with 0.3 mg Cl-amidine or 200 U DNase I in 50 μl PBS, placed 2 hours from 10 hours after injury, 12 hours, vs control sheet (large amount), FIG. 25): only a small amount of NETs were detected
- macrophages accumulated in the nerve parenchyma ([1]; sheet with 0.3 mg Cl-amidine or 200 U DNase I, placed 2 hours, 12 hours, CD68, vs control sheet, FIG. 26): more macrophages accumulated in the nerve parenchyma
